System: HCT 116 cells transfected with a luciferase reporter under the control of an HIF-responsive sequence
Assay: HIF-luciferase assay
Format: cell-based
Settings: Homo sapiens; HCT 116 HIF-luciferase reporter cells, hypoxia chamber (1% O2), 24 h; in some cases means of up to four individual determinations
Protocol: HCT 116 cells were transfected in a stable manner with a plasmid which contained a luciferase reporter under the control of an HIF-responsive sequence. These cells were sown in microtitre plates [20 000 cells/cavity in RPMI 1640 medium with 10% foetal calf serum (FCS) and 100 μg/ml of hygromycin]. Incubation was carried out overnight under standard conditions (5% CO2, 21% O2, 37° C., moistened). The following morning the cells were incubated with various concentrations of the test substances (0-10 μmol/l) in a hypoxia chamber (1% O2). After 24 h, Bright Glo reagent (Promega, Wisconsin, USA) was added in accordance with the manufacturer's instructions, and after 5 min the luminescence was measured. Cells which were incubated under normoxia served as background controls.
The IC50 values from this assay for representative working examples are listed in the following table (in same cases as means of up to four individual determinations): […]

Row | SMILES | IC50 [nM]
1 | Cc1ccc(Cn2nc(/C(F)=C/c3ccc(OC(F)(F)F)cc3)cc2C)cc1 [Example 2, 3-{(Z)-1-Fluoro-2-[4-(trifluoromethoxy)phenyl]vinyl}-5-methyl-1-(4-methylbenzyl)-1H-pyrazole] | 30
2 | Cc1cc(/C(F)=C/c2ccc(C(C)(C)C(F)(F)F)cc2)nn1Cc1cccc(Br)c1 [Example 7, 1-(3-Bromobenzyl)-3-{(Z)-1-fluoro-2-[4-(1,1,1-trifluoro-2-methylpropan-2-yl)phenyl]vinyl}-5-methyl-1H-pyrazole] | 40
3 | COC(=O)c1cccc(Cn2nc(/C(F)=C/c3ccc(OC(F)(F)F)cc3)cc2C)c1 [Example 18, Methyl 3-[(3-{(Z)-1-fluoro-2-[4-(trifluoromethoxy)phenyl]vinyl}-5-methyl-1H-pyrazol-1-yl)methyl]benzoate] | 20
4 | COC(=O)c1cccc(Cn2nc(/C(F)=C/c3ccc([Si](C)(C)C)cc3)cc2C)c1 [Example 23, Methyl 3-[(3-{(Z)-1-fluoro-2-[4-(trimethylsilyl)phenyl]vinyl}-5-methyl-1H-pyrazol-1-yl)methyl]benzoate] | 1
5 | Cc1cc(/C(F)=C/c2ccc(OC(F)(F)F)cc2)nn1Cc1cccc(C(=O)N(C)C)c1 [Example 25, 3-[(3-{(Z)-1-Fluoro-2-[4-(trifluoromethoxy)phenyl]vinyl}-5-methyl-1H-pyrazol-1-yl)methyl]-N,N-dimethylbenzamide] | 6
6 | Cc1cc(/C(F)=C/c2ccc(C(C)(C)C(F)(F)F)cc2)nn1Cc1cccc(C(=O)N2CCCC2)c1 [Example 28, {3-[(3-{(Z)-1-Fluoro-2-[4-(1,1,1-trifluoro-2-methylpropan-2-yl)phenyl]vinyl}-5-methyl-1H-pyrazol-1-yl)methyl]phenyl}(pyrrolidin-1-yl)methanone] | 5
7 | Cc1cc(/C(F)=C/c2ccc(C3(C(F)(F)F)CC3)cc2)nn1Cc1cccc(C(=O)N2CCCC2)c1 [Example 29, [3-({3-[(Z)-1-Fluoro-2-{4-[1-(trifluoromethyl)cyclopropyl]phenyl}vinyl]-5-methyl-1H-pyrazol-1-yl}methyl)phenyl](pyrrolidin-1-yl)methanone] | 5
8 | Cc1cc(/C(F)=C/c2ccc(C(F)(F)F)cc2)nn1Cc1cccc(C(=O)N2CCCC2)c1 [Example 30, {3-[(3-{(Z)-1-Fluoro-2-[4-(trifluoromethyl)phenyl]vinyl}-5-methyl-1H-pyrazol-1-yl)methyl]-phenyl}(pyrrolidin-1-yl)methanone] | 6
9 | Cc1cc(/C(F)=C/c2ccc(SC(F)(F)F)cc2)nn1Cc1cccc(C(=O)N2CCC(O)CC2)c1 [Example 33, [3-({3-[(Z)-1-Fluoro-2-{4-[(trifluoromethyl)sulphanyl]phenyl}vinyl]-5-methyl-1H-pyrazol-1-yl}-methyl)phenyl](4-hydroxypiperidin-1-yl)methanone] | 4
10 | Cc1cc(/C(F)=C/c2ccc(C(C)(C)C(F)(F)F)cc2)nn1Cc1cccc(C(=O)N2CCC(O)CC2)c1 [Example 34, {3-[(3-{(Z)-1-Fluoro-2-[4-(1,1,1-trifluoro-2-methylpropan-2-yl)phenyl]vinyl}-5-methyl-1H-pyrazol-1-yl)methyl]phenyl}(4-hydroxypiperidin-1-yl)methanone] | 5
11 | Cc1cc(/C(F)=C/c2ccc(C3(C(F)(F)F)CC3)cc2)nn1Cc1cccc(C(=O)N2CCC(O)CC2)c1 [Example 35, [3-({3-[(Z)-1-Fluoro-2-{4-[1-(trifluoromethyl)cyclopropyl]phenyl}vinyl]-5-methyl-1H-pyrazol-1-yl}methyl)phenyl](4-hydroxypiperidin-1-yl)methanone] | 5
12 | Cc1cc(/C(F)=C/c2ccc(C(F)(F)F)cc2)nn1Cc1cccc(C(=O)N2CCC(O)CC2)c1 [Example 36, {3-[(3-{(Z)-1-Fluoro-2-[4-(trifluoromethyl)phenyl]vinyl}-5-methyl-1H-pyrazol-1-yl)methyl]-phenyl}(4-hydroxypiperidin-1-yl)methanone] | 4
13 | Cc1cc(/C(F)=C/c2ccc(SC(F)(F)F)cc2)nn1Cc1cccc(C(=O)N2CCN(C3CC3)CC2)c1 [Example 38, (4-Cyclopropylpiperazin-1-yl)[3-({3-[(Z)-1-fluoro-2-{4-[(trifluoromethyl)sulphanyl]phenyl}vinyl]-5-methyl-1H-pyrazol-1-yl}methyl)phenyl]methanone] | 4

More lines, in order of falling IC50, values ahead:

Row | IC50 [nM] | SMILES
14 | 4 | Cc1cc(/C(F)=C/c2ccc(SC(F)(F)F)cc2)nn1Cc1cccc(C(=O)N2CCCC2)c1 [Example 27, [3-({3-[(Z)-1-Fluoro-2-{4-[(trifluoromethyl)sulphanyl]phenyl}vinyl]-5-methyl-1H-pyrazol-1-yl}methyl)phenyl](pyrrolidin-1-yl)methanone]
15 | 4 | Cc1cc(/C(F)=C/c2ccc(OC(F)(F)F)cc2)nn1Cc1cccc(C(=O)N2CCC(O)CC2)c1 [Example 32, {3-[(3-{(Z)-1-Fluoro-2-[4-(trifluoromethoxy)phenyl]vinyl}-5-methyl-1H-pyrazol-1-yl)-methyl]phenyl}(4-hydroxypiperidin-1-yl)methanone]
16 | 3 | Cc1cc(/C(F)=C/c2ccc(OC(F)(F)F)cc2)nn1Cc1cccc(C(=O)N2CCOCC2)c1 [Example 31, {3-[(3-{(Z)-1-Fluoro-2-[4-(trifluoromethoxy)phenyl]vinyl}-5-methyl-1H-pyrazol-1-yl)methyl]-phenyl}(morpholin-4-yl)methanone]
17 | 3 | Cc1cc(/C(F)=C/c2ccc(OC(F)(F)F)cc2)nn1Cc1cccc(C(=O)N2CCN(C3CC3)CC2)c1 [Example 37, (4-Cyclopropylpiperazin-1-yl) {3-[(3-{(Z)-1-fluoro-2-[4-(trifluoromethoxy)phenyl]vinyl}-5-methyl-1H-pyrazol-1-yl)methyl]phenyl}methanone]
18 | 2 | Cc1ccc(Cn2nc(/C(F)=C/c3ccc(N4CC(C)OC(C)C4)nc3)cc2C)cc1 (stereo not shown) [Example 4, 4-(5-{(Z)-2-Fluoro-2-[5-methyl-1-(4-methylbenzyl)-1H-pyrazol-3-yl]vinyl}pyridin-2-yl)-2,6-dimethylmorpholine]
19 | 2 | Cc1cc(/C(F)=C/c2ccc(OC(F)(F)F)cc2)nn1Cc1cccc(N2CC(O)C2)c1 [Example 15, 1-{3-[(3-{(Z)-1-Fluoro-2-[4-(trifluoromethoxy)phenyl]vinyl}-5-methyl-1H-pyrazol-1-yl)methyl]phenyl}azetidin-3-ol]
20 | 1.5 | Cc1cc(/C(F)=C/c2ccc(OC(F)(F)F)cc2)nn1Cc1cccc(C(=O)N2CCCC2)c1 [Example 26, {3-[(3-{(Z)-1-Fluoro-2-[4-(trifluoromethoxy)phenyl]vinyl}-5-methyl-1H-pyrazol-1-yl)-methyl]phenyl}(pyrrolidin-1-yl)methanone]
21 | 1 | Cc1cc(/C(F)=C/c2ccc(C3(C(F)(F)F)CC3)cc2)nn1Cc1cccc(N2CC(O)C2)c1 [Example 17, 1-[3-({3-[(Z)-1-Fluoro-2-{4-[1-(trifluoromethyl)cyclopropyl]phenyl}vinyl]-5-methyl-1H-pyrazol-1-yl}methyl)phenyl]azetidin-3-ol]
22 | 0.5 | Cc1cc(/C(F)=C/c2ccc(C(C)(C)C(F)(F)F)cc2)nn1Cc1cccc(N2CCC(O)CC2)c1 [Example 13, 1-{3-[(3-{(Z)-1-Fluoro-2-[4-(1,1,1-trifluoro-2-methylpropan-2-yl)phenyl]vinyl}-5-methyl-1H-pyrazol-1-yl)methyl]phenyl}piperidin-4-ol]
23 | 0.5 | Cc1cc(/C(F)=C/c2ccc(C(C)(C)C(F)(F)F)cc2)nn1Cc1cccc(N2CC(O)C2)c1 [Example 16, 1-{3-[(3-{(Z)-1-Fluoro-2-[4-(1,1,1-trifluoro-2-methylpropan-2-yl)phenyl]vinyl}-5-methyl-1H-pyrazol-1-yl)methyl]phenyl}azetidin-3-ol]
24 | 0.4 | Cc1cc(/C(F)=C/c2ccc(OC(F)(F)F)cc2)nn1Cc1cccc(N2CCC(C#N)CC2)c1 [Example 9, 1-{3-[(3-{(Z)-1-Fluoro-2-[4-(trifluoromethoxy)phenyl]vinyl}-5-methyl-1H-pyrazol-1-yl)-methyl]phenyl}piperidine-4-carbonitrile]
25 | 0.4 | Cc1cc(/C(F)=C/c2ccc(C(C)(C)C(F)(F)F)cc2)nn1Cc1cccc(N2CCC(C#N)CC2)c1 [Example 10, 1-{3-[(3-{(Z)-1-Fluoro-2-[4-(1,1,1-trifluoro-2-methylpropan-2-yl)phenyl]vinyl}-5-methyl-1H-pyrazol-1-yl)methyl]phenyl}piperidine-4-carbonitrite]
26 | 0.3 | Cc1cc(/C(F)=C/c2ccc(OC(F)(F)F)cc2)nn1Cc1cccc(N2CCC(O)CC2)c1 [Example 12, 1-{3-[(3-{(Z)-1-Fluoro-2-[4-(trifluoromethoxy)phenyl]vinyl}-5-methyl-1H-pyrazol-1-yl)methyl]phenyl}piperidin-4-ol]
27 | 0.2 | Cc1cc(/C(F)=C/c2ccc(C3(C(F)(F)F)CC3)cc2)nn1Cc1cccc(N2CCC(C#N)CC2)c1 [Example 11, 1-[3-({3-[(Z)-1-Fluoro-2-{4-[1-(trifluoromethyl)cyclopropyl]phenyl}vinyl]-5-methyl-1H-pyrazol-1-yl}methyl)phenyl]piperidine-4-carbonitrile]
28 | 0.2 | Cc1cc(/C(F)=C/c2ccc(C3(C(F)(F)F)CC3)cc2)nn1Cc1cccc(N2CCC(O)CC2)c1 [Example 14, 1-[3-({3-[(Z)-1-Fluoro-2-{4-[1-(trifluoromethyl)cyclopropyl]phenyl}vinyl]-5-methyl-1H-pyrazol-1-yl}methyl)phenyl]piperidin-4-ol]

From patent publication US20130150325A1, “3-(Fluorovinyl)pyrazoles and their use” (BAYER INTELLECTUAL PROPERTY GMBH, priority 2011, published 2013)
